US7378080B2, “Methods for identifying compounds for motion sickness, vertigo and other disorders related to balance and the perception of gravity” (Neurosciences Research Foundation, Inc., priority 1999, dated 2008)

System: Canton-S flies
Test: Geotaxis maze assay of Drosophila
Assay type: in vivo, Drosophila melanogaster
Method: These strains and a standard laboratory wild-type strain (Canton-S, obtained from the Bloomington Drosophila Stock Center, Indiana University at Bloomington) were then tested in a geotaxis maze constructed according to the design of Hirsch (J. Comp. Physiol. Psychol. 52:304-308 (1959)) as modified by McMillan and McGuire (Behav. Genet. 22:557-573 (1992)), shown in FIG. 1. The geotaxis maze was fashioned from plexiglass and the maze chambers were hollowed out as semi-circular depressions in the slab, such that when the two slabs were bolted together a circular tube was formed in maze. This design thus made it possible to observe the entire time course of the assay. Additionally, this maze is easy to clean and standardize. For each strain, a geotaxis score was determined. In separate measurements, twenty to thirty flies of each strain were loaded into a starting tube on the left (see FIG. 1). The maze was set upright in front of a light source on the right, and, after turning on the light, each strain was scored according to the distribution of the flies in the nine collecting tubes on the right. A perfect score for positive geotaxis would be 1, for negative geotaxis, 9, and for an even distribution, 5. The geotaxis measurments were repeated 3-5 times for each strain (see Table 1). […]

For `OCCOCCN1CCN(C(c2ccccc2)c2ccc(Cl)cc2)CC1` (centres unmarked) [hydroxyzine], the “Effect on geotactic behavior (in words)” value (Canton-S flies fed with the histamine receptor antagonist) was “Extreme negative geotaxis is induced” and the Geotaxis score (wild-type Canton-S flies fed for 2 hr on 20 mg/ml hydroxyzine, score scale 1 = positive geotaxis, 5 = even distribution, 9 = negative geotaxis, N=1 (15-25 flies), untreated Canton-S 5.53) was 8.50.
